Source: the supplement of paper PMC11208160

Test: recombinant barcode read abundance after kanamycin selection (control-corrected) (log10(CPM+1)); higher = more efficient recombination; sequences stand for … in AGTGCAGAGAAAATCGGCCAGTTTTCTCTGCCTGCAGTCCGCATGCCGT…AGATTTATGCAGCGGACTGCCTTTCTCCCAAAGTGATAAACCGGACAGTATCATGGACCGGTTTTCCCGGTAATCCGTATTTGCAAGGTTGGTTTCACT; site = the 11-nt target
Method in brief: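 This pooled E. coli screen matched targets with IS621 bridge RNA target-binding loops. Plating was done in duplicate on chloramphenicol/ampicillin LB agar as a control and on chloramphenicol/ampicillin/kanamycin plus 0.1 mM IPTG. Recombination efficiency reflects barcode counts at recombinant junctions as counts per million, averaged and control-corrected. The figures are log10(CPM+1).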
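Further: IS621 recombinase and bridge RNA in Escherichia coli cells.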

| Sequence | recombinant barcode read abundance (log10) |
| --- | --- |
| CTATATACTTGGGTTCTAACCTGTTGCTT (site CTAAATACTAA) | 0.088 |
| CTATATACTTGGGTTCTAACCTGTTGCTT (site CTATATACTAA) | 0.804 |
| CTATGAACTTGGGTTCTAACCTGTTGCCA (site CTATGAACTTG) | 0.283 |
| CTATGAACTTGGGTTCTAACCTGTTGCCA (site GACATTCCTAA) | 0.0769 |
| CTATGACCTTGGGTTCTAACCTGTTGCAT (site CTATGACCTAA) | 0.0613 |
| CTATGACCTTGGGTTCTAACCTGTTGCAT (site CTATGACCTAC) | 0.139 |
| CTATGACCTTGGGTTCTAACCTGTTGCAT (site CTATGACCTAG) | 0.19 |
| CTATGACCTTGGGTTCTAACCTGTTGCAT (site CTATGACCTAT) | 0.568 |
| CTATGACCTTGGGTTCTAACCTGTTGCGT (site CTATGACCTAA) | 0.191 |
| CTATGACCTTGGGTTCTAACCTGTTGCGT (site CTATGACCTAC) | 2.11 |
| CTATGACCTTGGGTTCTAACCTGTTGCGT (site CTATGACCTAG) | 0.211 |
| CTATGACCTTGGGTTCTAACCTGTTGCGT (site CTATGACCTAT) | 1.26 |
| CTATGACCTTGGGTTCTAACCTGTTGCTT (site CTATGACCTAA) | 1.4 |
| CTATGACCTTGGGTTCTAACCTGTTGCTT (site CTATGACCTAC) | 0.0411 |
| CTATGACCTTGGGTTCTAACCTGTTGCTT (site CTATGACCTAG) | 1.26 |
| CTATGACCTTGGGTTCTAACCTGTTGCTT (site CTATGACCTAT) | 0.394 |
| CTATGGACTTGGGTTCTAACCTGTTGCAA (site CTATGGACTAT) | 0.0174 |
| CTATGGACTTGGGTTCTAACCTGTTGCAA (site CTATGGACTCT) | 0.23 |
| CTATGGACTTGGGTTCTAACCTGTTGCAA (site CTATGGACTGT) | 0.274 |
| CTATGGACTTGGGTTCTAACCTGTTGCAA (site CTATGGACTTT) | 1.39 |
| CTATGGACTTGGGTTCTAACCTGTTGCAT (site CTATGGACTAT) | 0.348 |
| CTATGGACTTGGGTTCTAACCTGTTGCAT (site CTATGGACTCT) | 0.614 |

| Sequence | recombinant barcode read abundance (log10) |
| --- | --- |
| CTATGGACTTGGGTTCTAACCTGTTGCAT (site CTATGGACTGT) | 0.217 |
| CTATGGACTTGGGTTCTAACCTGTTGCAT (site CTATGGACTTT) | 0.0336 |
| CTATGTCCTTGGGTTCTAACCTGTTGCGT (site CTATGTCCTAC) | 1.44 |
| CTATGTCCTTGGGTTCTAACCTGTTGCGT (site GGATGTCCTAC) | 0.228 |
| CTATGTGCTTGGGTTCTAACCTGTTGCAT (site CTATGTGCTAA) | 0.295 |
| CTATGTGCTTGGGTTCTAACCTGTTGCAT (site CTATGTGCTAC) | 0.168 |
| CTATGTGCTTGGGTTCTAACCTGTTGCAT (site CTATGTGCTAG) | 0.0201 |
| CTATGTGCTTGGGTTCTAACCTGTTGCAT (site CTATGTGCTAT) | 0.109 |
| CTATTCACTTGGGTTCTAACCTGTTGCCT (site CTATTCACTAG) | 1.34 |
| CTATTCACTTGGGTTCTAACCTGTTGCCT (site CTATTCCCTAG) | 0.0733 |
| CTATTCACTTGGGTTCTAACCTGTTGCCT (site CTATTCGCTAG) | 0.0529 |
| CTATTCACTTGGGTTCTAACCTGTTGCCT (site CTATTCTCTAG) | 0.091 |
| CTATTCTCTTGGGTTCTAACCTGTTGCTA (site CTATACTCTTG) | 0.115 |
| CTATTCTCTTGGGTTCTAACCTGTTGCTA (site CTATTCTCTTA) | 1.62 |
| CTATTGTCTTGGGTTCTAACCTGTTGCGT (site CTATTGTCTAC) | 2.78 |
| CTATTGTCTTGGGTTCTAACCTGTTGCGT (site CTATTGTCTCC) | 0.019 |
| CTATTGTCTTGGGTTCTAACCTGTTGCGT (site CTATTGTCTGC) | 0.475 |
| CTATTGTCTTGGGTTCTAACCTGTTGCGT (site CTATTGTCTTC) | 0.0685 |
| CTATTTACTTGGGTTCTAACCTGTTGCGG (site CTATTTACTCC) | 0.781 |
| CTATTTACTTGGGTTCTAACCTGTTGCGG (site TGTCGGCCTAA) | 0.0533 |
| CTATTTCCTTGGGTTCTAACCTGTTGCCT (site CGGTTTCCTAG) | 0.032 |
| CTATTTCCTTGGGTTCTAACCTGTTGCCT (site CTATTTCCTAG) | 0.284 |

| Sequence | recombinant barcode read abundance (log10) |
| --- | --- |
| CTCAAACCTTGGGTTCTAACCTGTTGCTT (site CTCAAACCTAA) | 0.355 |
| CTCAAACCTTGGGTTCTAACCTGTTGCTT (site CTCACACCTAA) | 0.15 |
| CTCAAGACTTGGGTTCTAACCTGTTGCGG (site CTCAAGACTCC) | 2.5 |
| CTCAAGACTTGGGTTCTAACCTGTTGCGG (site CTCTAGACTCA) | 0.219 |
| CTCACACCTTGGGTTCTAACCTGTTGCAG (site CTCACACCTCT) | 0.968 |
| CTCACACCTTGGGTTCTAACCTGTTGCAG (site TGTCATGCTAC) | 0.331 |
| CTCACGCCTTGGGTTCTAACCTGTTGCTT (site CACACGCCTAG) | 0.228 |
| CTCACGCCTTGGGTTCTAACCTGTTGCTT (site CTCACGCCTAA) | 0.237 |
| CTCAGGTCTTGGGTTCTAACCTGTTGCCA (site CTCAGGTCTAG) | 0.18 |
| CTCAGGTCTTGGGTTCTAACCTGTTGCCA (site CTCAGGTCTTG) | 0.193 |
| CTCATTCCTTGGGTTCTAACCTGTTGCAT (site CTCATTCCTAA) | 0.0718 |
| CTCATTCCTTGGGTTCTAACCTGTTGCAT (site CTCATTCCTAC) | 0.0351 |
| CTCATTCCTTGGGTTCTAACCTGTTGCAT (site CTCATTCCTAG) | 0.112 |
| CTCATTCCTTGGGTTCTAACCTGTTGCAT (site CTCATTCCTAT) | 0.523 |
| CTCATTCCTTGGGTTCTAACCTGTTGCTT (site CTCATTCCTAA) | 0.211 |
| CTCATTCCTTGGGTTCTAACCTGTTGCTT (site CTCATTCCTAC) | 0.482 |
| CTCATTCCTTGGGTTCTAACCTGTTGCTT (site CTCATTCCTAG) | 0.0511 |
| CTCATTCCTTGGGTTCTAACCTGTTGCTT (site CTCATTCCTAT) | 0.0615 |
| CTCCATCCTTGGGTTCTAACCTGTTGCCT (site CTCCATACTAG) | 0 |
| CTCCATCCTTGGGTTCTAACCTGTTGCCT (site CTCCATCCTAG) | 0.898 |
| CTCCATCCTTGGGTTCTAACCTGTTGCCT (site CTCCATGCTAG) | 0.0326 |
| CTCCATCCTTGGGTTCTAACCTGTTGCCT (site CTCCATTCTAG) | 0.0176 |
